Results taken from the supplement of paper PMC10307832.

Columns and labels:
Assay in all cases: relative viability (nuclei count vs DMSO), 5 days (fraction); higher = more cells survive
IU1-47 + Navitoclax = compound: CC1=CC(=C(N1C2=CC=C(C=C2)Cl)C)C(=O)CN3CCCCC3 [IU1-47] + CC1(C)CCC(c2ccc(Cl)cc2)=C(CN2CCN(c3ccc(C(=O)NS(=O)(=O)c4ccc(N[C@H](CCN5CCOCC5)CSc5ccccc5)c(S(=O)(=O)C(F)(F)F)c4)cc3)CC2)C1 [Navitoclax] (partner 0.5 µM)
Method in brief: (§1)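 Five library-drug doses in √10 steps were combined with a fixed anchor-drug dose, or a single drug was given alone, by pin tool to lung cancer cell lines in 1536-well plates the day after seeding. Nuclei were stained and counted after 5 days. Relative viability is the nuclei count in treated wells over that in vehicle wells, taken as the median of duplicate plates.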

FG-4592 + Phenformin = compound: Cc1nc(C(=O)NCC(=O)O)c(O)c2ccc(Oc3ccccc3)cc12 [FG-4592] + N=C(N)NC(=N)NCCc1ccccc1 [Phenformin] (partner 250 µM)
Method in brief: as §1

IU1-47 = compound: CC1=CC(=C(N1C2=CC=C(C=C2)Cl)C)C(=O)CN3CCCCC3 [IU1-47]
Method in brief: (§2)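 Five library-drug doses spaced by √10 were pinned onto vehicle-anchored 1536-well plates of lung cancer cell lines that had been kept overnight at 37 °C. Cells went 5 days without medium change, then were fixed, permeabilised and Hoechst-stained together, imaged at 4× and counted by MetaXpress. Viability is the ratio of treated-well to vehicle-well nuclei, taken as a median over plates. Plates required control CV below 25% and at least one doubling.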

FG-4592 = compound: Cc1nc(C(=O)NCC(=O)O)c(O)c2ccc(Oc3ccccc3)cc12 [FG-4592]
Method in brief: as §2

Cell Line | relative viability (IU1-47 + Navitoclax; first compound 0.08 µM) | relative viability (IU1-47 + Navitoclax; first compound 0.253 µM) | relative viability (IU1-47 + Navitoclax; first compound 0.8 µM) | relative viability (IU1-47 + Navitoclax; first compound 2.53 µM) | relative viability (IU1-47 + Navitoclax; first compound 8 µM) | relative viability (FG-4592 + Phenformin; first compound 0.08 µM) | relative viability (FG-4592 + Phenformin; first compound 0.253 µM) | relative viability (FG-4592 + Phenformin; first compound 0.8 µM) | relative viability (FG-4592 + Phenformin; first compound 2.53 µM) | relative viability (FG-4592 + Phenformin; first compound 8 µM) | relative viability (IU1-47; 0.08 µM) | relative viability (IU1-47; 0.253 µM) | relative viability (IU1-47; 0.8 µM) | relative viability (IU1-47; 2.53 µM) | relative viability (IU1-47; 8 µM) | relative viability (FG-4592; 0.08 µM) | relative viability (FG-4592; 0.253 µM) | relative viability (FG-4592; 0.8 µM) | relative viability (FG-4592; 2.53 µM) | relative viability (FG-4592; 8 µM)
NCI-H2009 | 1.23 | 1.2 | 1.16 | 1.14 | 1.18 | 0.502 | 0.402 | 0.53 | 0.454 | 0.549 | 1 | 1 | 1.02 | 0.842 | 1.04 | 1.03 | 0.958 | 1 | 0.902 | 0.953
NCI-H2405 | 1.02 | 0.902 | 0.862 |  | 0.897 | 0.282 |  | 0.382 | 0.342 | 0.42 | 1.07 | 1.06 | 1.03 | 0.863 | 1.01 | 0.869 | 0.826 | 0.912 | 0.928 | 0.944
NCI-H1755 | 1.15 | 1.05 | 1.06 | 1.07 | 1.01 | 0.588 | 0.566 | 0.556 | 0.581 | 0.627 | 1.11 | 1.11 | 1.09 | 1.04 | 0.958 | 0.958 | 0.941 | 0.916 | 1.02 | 1.03
HCC-78 | 0.906 | 0.866 | 0.819 | 0.578 | 0.747 | 0.683 | 0.621 | 0.809 | 0.723 | 0.716 | 0.97 | 0.953 | 1.03 | 0.874 | 0.889 | 0.893 | 0.746 | 0.972 | 0.916 | 1.01
LOU-NH91 | 0.772 | 0.687 | 0.638 | 0.609 | 0.652 | 0.673 | 0.647 | 0.551 | 0.677 | 0.677 | 1.09 | 1.04 | 0.964 | 1.04 | 0.952 | 0.942 | 0.869 | 0.905 | 0.92 | 0.96
NCI-H3122 | 1.02 | 0.966 | 1.02 | 1.01 | 1 | 0.42 | 0.349 | 0.398 | 0.334 | 0.385 | 1.07 | 1.07 | 1.01 | 1.04 | 0.974 | 1.03 | 0.957 | 1.06 | 1.07 | 1.03
HCC-827 | 1.06 | 1.08 | 1.01 | 1.02 | 0.995 | 0.37 | 0.376 | 0.38 | 0.367 | 0.401 | 1.09 | 1.05 | 1.05 | 1.08 | 1.09 | 1.03 | 0.988 | 1.02 | 1.02 | 1.03
SK-LU-1 | 0.853 | 0.855 | 0.819 | 0.839 | 0.847 | 0.445 | 0.387 | 0.456 | 0.49 | 0.5 | 1.14 | 1.17 | 1.05 | 0.98 | 1.06 | 0.882 | 0.748 | 0.898 | 0.899 | 0.879
NCI-H1975 | 1.25 | 1.14 | 1.38 | 1.18 | 0.888 | 0.384 | 0.399 | 0.369 | 0.384 | 0.396 | 0.963 | 0.943 | 1.06 | 0.968 | 0.842 | 1 | 0.881 | 0.9 | 0.839 | 0.861
NCI-H1651 | 1.25 | 1.13 | 1.16 |  | 1.12 | 0.32 | 0.316 | 0.335 | 0.355 | 0.421 | 0.978 | 0.995 | 1.01 | 0.918 | 0.983 | 0.973 | 0.941 | 0.921 | 0.961 | 0.915
NCI-H441 | 0.574 | 0.497 | 0.655 | 0.684 | 0.548 | 0.876 | 0.69 | 0.928 | 0.686 | 0.848 | 1.24 | 1.16 | 1.07 | 1.01 | 1.07 | 1.05 | 0.928 | 0.98 | 0.756 | 0.787
LCLC-97TM1 | 0.526 | 0.502 | 0.517 |  | 0.404 | 0.415 | 0.385 | 0.44 | 0.423 | 0.426 | 0.954 | 1.22 | 1.06 | 0.589 | 0.834 | 0.918 | 0.901 | 0.791 | 0.924 | 0.873
NCI-H727 | 0.454 |  | 0.597 | 0.413 | 0.391 | 0.543 | 0.341 | 0.378 | 0.643 | 0.609 | 1.03 | 0.938 | 1.12 | 0.755 | 0.867 | 0.88 | 0.921 | 0.894 | 0.944 | 0.992
NCI-H1355 | 0.946 | 0.943 | 0.977 | 0.898 | 0.848 | 0.378 | 0.422 | 0.358 | 0.431 | 0.449 | 1.01 | 1.04 | 1.03 |  | 0.881 | 0.965 | 0.922 |  | 0.926 | 0.912
HOP-62 | 1.05 | 0.962 | 1.12 | 0.897 | 1.21 | 0.601 | 0.654 | 0.672 | 0.657 | 0.665 | 1.09 | 1.05 | 1.09 | 0.779 | 1.09 | 0.997 | 0.957 | 0.943 | 0.96 | 1.01
NCI-H2085 | 1.15 | 1.22 | 1.13 | 1.19 | 1.01 | 0.646 | 0.618 | 0.536 | 0.592 | 0.647 | 1.05 | 0.998 | 0.973 | 1.01 | 0.954 | 1 | 0.955 | 0.934 | 0.965 | 1.02
